# Measurements taken from patent US9631041B2, “PH-sensitive compositions for delivery of beta lapachone and methods of use” (The Board of Regents of the University of Texas System, priority 2010, dated 2017).
# Like-named read-outs stand apart in the source and are kept apart here.
# Experiments:
# [1] = Prodrug hydrolysis / conversion into β-lap by HPLC at different pH; format: physicochemical; conditions: for pH sensitivity of hydrolysis: hydrolysis study at neutral pH and acidic pH; for half-life at 5 μmol/mL: acetonitrile/buffered solution (30:70, v/v)
# Description: The HPLC system consisted of a quaternary pump, a vacuum degasser, an autosampler, a C18 column (4.6 mm×250 mm, Agilent, CA) and UV detector at 254 nm (Perkin Elmer, MA, USA). The mobile phase was acetonitrile/water (60:40) and a flow rate of 1.0 mL/min was used.
# A549 cells = assay: Cytotoxicity assay, long-term relative survival by DNA content; format: cell-based, human
# Description: Long-term, relative survival was assessed based on DNA content as described (Pink, J. J., Planchon, S. M., Tagliarino, C., Varnes, M. E., Siegel, D., and Boothman, D. A. (2000) NAD(P)H:Quinone oxidoreductase activity is the principal determinant of beta-lapachone cytotoxicity. J. Biol. Chem. 275, 5416-24). Briefly, A549 cells were seeded at 5×10^3/well in 48-well dishes a day before experiments. Cells were then mock-treated or exposed to various doses of β-lap or β-lap prodrug (6) conjugated micelles for preferred time in the presence or absence of dicoumoral (40 μM) as indicated. Subsequently, cells were replenished with drug-free medium and allowed to grow for 5-7 days until control cells reached ˜100% confluence. DNA content was determined by Hoechst 33258 staining and fluorescence detection using a plate reader (Perkin-Elmer, Boston, Mass.). Results were graphed as means±SE from sixtuplicate. Independent experiments were repeated at least three times. DIC is a specific NQO1 inhibitor and used to block β-Lap induced cytotoxicity.
# NQO1 = NQO1 (Homo sapiens, UniProt P15559); conditions: upon NQO1 bioactivation, futile cycle; cited from earlier work
# [2] = inclusion complex with hydroxylpropyl β-cyclodextrin; cited from earlier work
# [3] = free drug; cited from earlier work
# NQO1, sequence (P15559 whole entry): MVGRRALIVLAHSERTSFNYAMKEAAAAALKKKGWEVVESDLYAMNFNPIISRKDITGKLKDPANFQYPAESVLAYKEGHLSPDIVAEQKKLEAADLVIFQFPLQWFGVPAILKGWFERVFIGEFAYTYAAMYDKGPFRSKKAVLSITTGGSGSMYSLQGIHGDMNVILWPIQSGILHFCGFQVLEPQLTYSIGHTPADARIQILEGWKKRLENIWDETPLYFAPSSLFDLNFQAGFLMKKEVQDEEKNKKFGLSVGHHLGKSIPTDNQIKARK
smiles,measurement,setting,value
"CC1(C)CCc2c(c3ccccc3c3nc(CCCCO)oc23)O1 [(4), 4-(6,6-dimethyl-5,6-dihydro-4H-benzo[7,8]chromeno[6,5-d]oxazol-2-yl)butan-1-ol]",pH sensitivity of hydrolysis,[1],resisted acid catalyzed hydrolysis
"CC1(C)CCC2=C(O1)c1ccccc1C(=O)C2=O [β-lap, β-Lapachone]",cytotoxicity in the presence of dicoumarol (NQO1 inhibitor),"A549 cells; A549, dicoumarol 40 μM",blocked
same,concentration sufficient to reach maximal cytotoxicity,"A549 cells; A549 cells, within 2 hours",5 µM
same,moles of H2O2 and other ROS produced per mole of β-lap,NQO1,120 mol
same,binding constant,[2],1100 M⁻¹
same,aqueous solubility,[3],38 µg/mL
"CC1(C)CCC2=C(O1)c1ccccc1[C@]1(OC[C@@](C)(CO)CO1)C2=O [prodrug (2), (2′r,5′r)-5′-(hydroxymethyl)-2,2,5′-trimethyl-3,4-dihydrospiro[benzo[h]chromene-6,2′-[1,3]dioxan]-5(2H)-one]",pH sensitivity of hydrolysis,[1],not pH-sensitive
"Cc1cc2nc3c(oc-2cc1=O)c1c(c2ccccc23)OC(C)(C)CC1 [(5), 3,3,11-trimethyl-2,3-dihydrobenzo[a]pyrano[2,3-c]phenoxazin-12(1H)-one]",pH sensitivity of hydrolysis,[1],resisted acid catalyzed hydrolysis
"CC1(C)CCC2=C(O1)c1ccccc1[C@]1(OC[C@](C)(CO)CO1)C2=O [prodrug (3), (2′s,5′s)-5′-(hydroxymethyl)-2,2,5′-trimethyl-3,4-dihydrospiro[benzo[h]chromene-6,2′-[1,3]dioxan]-5(2H)-one]",pH sensitivity of hydrolysis,[1],not pH-sensitive
"CC(=O)N/N=C1\C(=O)C2=C(OC(C)(C)CC2)c2ccccc21 [prodrug (1), (Z)—N′-(2,2-dimethyl-5-oxo-3,4-dihydro-2H-benzo[h]chromen-6(5H)-ylidene)acetohydrazide]",pH sensitivity of hydrolysis,[1],not pH-sensitive
"CC1(C)CCC2=C(O1)c1ccccc1/C(=N\c1ccc(N3C(=O)C=CC3=O)cc1)C2=O [prodrug (6), (E)-1-(4-(2,2-dimethyl-5-oxo-3,4-dihydro-2H-benzo[h]chromen-6(5H)-ylideneamino)phenyl)-1H-pyrrole-2,5-dione]",half-life at 5 μmol/mL,"[1]; pH 5, pH 5.0, room temperature, read-out: half-life of conversion into β-lap, t1/2 (pH 5.0) (converted)",1.1 h
same,half-life at 5 μmol/mL,"[1]; pH 7.4, pH 7.4, read-out: half-life for hydrolysis, t1/2 (pH 7.4)",> 90 h
same,pH sensitivity of hydrolysis,[1],inspiring pH sensitivity both at neutral and at acidic conditions
same,prodrug converted into β-Lap,"[1]; pH 5.0, after 1.5 hr",more than 50%
same,prodrug hydrolyzed,"[1]; pH 5.0, after 10 hrs",all prodrug (6) was hydrolyzed
same,β-Lap released from prodrug,"[1]; pH 5.0 buffer, 5 mins",only a trace
same,prodrug converted into β-Lap,"[1]; pH 6.5, after 24 hrs",about 30%
same,prodrug converted into β-Lap,"[1]; pH 7.4, after 24 hrs",~3.3%
"Nc1ccc(N2C(=O)C=CC2=O)cc1 [linker, N-(4-Aminophenyl)maleimide]",toxicity,"A549 cells; A549, treatment up to 24 h",No toxicity
